Experiment [1] concerns Pythium ultimum. Put plainly: Pythium ultimum/liquid culture (seedling damping off). It is filed as cell-based. The note with it: Globisporangium ultimum, liquid culture, growth inhibition determined photometrically 2-3 days after application, compared to untreated control. As to the method:
Mycelia fragments and oospores of a newly grown liquid culture of the fungus are directly mixed into nutrient broth (PDB potato dextrose broth). After placing a (DMSO) solution of test compound into a microtiter plate (96-well format), the nutrient broth containing the fungal mycelia/spore mixture is added. The test plates are incubated at 24° C. and the inhibition of growth is determined photometrically 2-3 days after application.

Experiment [2] concerns Phytophthora infestans. Put plainly: whole plant or invertebrate. It is filed as in vivo. The note with it: in Solanum lycopersicum, foliar, read-out: control of Phytophthora infestans.
Experiment [3] has as its system Plasmopara viticola. Kind of experiment: whole plant or invertebrate. It is filed as in vivo. The note with it: foliar, read-out: control of Plasmopara viticola.
The test system of experiment [4] is Monographella nivalis (Microdochium nivale). Put plainly: Monographella nivalis (Microdochium nivale)/liquid culture (foot rot cereals). It is filed as cell-based. The note with it: liquid culture, growth inhibition determined photometrically 4-5 days after application, compared to untreated control. As to the method: The fungicidal activity of the compounds of the invention have been tested as follows: • Monographella nivalis (Microdochium nivale)/liquid culture (foot rot cereals) Conidia of the fungus from cryogenic storage are directly mixed into nutrient broth (PDB potato dextrose broth). After placing a (DMSO) solution of test compound into a microtiter plate (96-well format), the nutrient broth containing the fungal spores is added. The test plates are incubated at 24° C. and the inhibition of growth is determined photometrically 4-5 days after application.

Take `COC(=O)Nc1ccc(-c2cnc3cnc(C(=O)N(CC#N)c4ccc(Cl)c(OC)c4)cn23)cn1` [Compound 3, methyl N-[5-[6-[(4-chloro-3-methoxy-phenyl)-(cyanomethyl)carbamoyl]imidazo[1,2-a]pyrazin-3-yl]-2-pyridyl]carbamate]: in experiment [1], the inhibition of growth at 20 ppm was no less than 80%. For the same molecule, the pest or weed control at 200 ppm in experiment [2] was no less than 80%.
In experiment [1], `COC(=O)Nc1ccc(-c2cnc3cnc(C(=O)N(C)c4ccc(F)c(OC)c4)cn23)cn1` [Compound 4, methyl N-[5-[6-[(4-fluoro-3-methoxy-phenyl)-methyl-carbamoyl]imidazo[1,2-a]pyrazin-3-yl]-2-pyridyl]carbamate] had an inhibition of growth at 20 ppm of no less than 80%. The pest or weed control at 200 ppm in experiment [2] is no less than 80%.
Regarding `COc1cc(N(C)C(=O)c2cn3c(-c4ccc(NC(C)=O)cc4)cnc3cn2)ccc1F` [Compound 51, 3-(4-acetamidophenyl)-N-(4-fluoro-3-methoxy-phenyl)-N-methyl-imidazo[1,2-a]pyrazine-6-carboxamide], the pest or weed control at 200 ppm in experiment [2] is no less than 80%.
As for `CC(=O)Nc1ccc(-c2cnc3cnc(C(=O)N(C)c4ccc(C#N)cc4)cn23)cc1` [Compound 36, 3-(4-acetamidophenyl)-N-(4-cyanophenyl)-N-methyl-imidazo[1,2-a]pyrazine-6-carboxamide], in experiment [3], the pest or weed control at 200 ppm is no less than 80%.
In the case of `CNC(=O)Nc1ccc(-c2cnc3cnc(C(=O)N(C)c4ccc(Cl)cc4)cn23)cc1` [Compound 6, N-(4-chlorophenyl)-N-methyl-3-[4-(methylcarbamoylamino)phenyl]imidazo[1,2-a]pyrazine-6-carboxamide], the inhibition of growth at 20 ppm in experiment [4] is no less than 80%. In addition, the pest or weed control at 200 ppm in experiment [3] is no less than 80%.
As to `COC(=O)Nc1ccc(-c2cnc3cnc(C(=O)N(C)c4ccc(C#N)c(OC)c4)cn23)cc1` [Compound 59, methyl N-[4-[6-[(4-cyano-3-methoxy-phenyl)-methyl-carbamoyl]imidazo[1,2-a]pyrazin-3-yl]phenyl]carbamate], the pest or weed control at 200 ppm in experiment [3] and in experiment [2] was no less than 80% throughout. The molecule also yielded an inhibition of growth at 20 ppm in experiment [1] of no less than 80%.
The molecule `COC(=O)Nc1ccc(-c2cnc3cnc(C(=O)N(C)c4ccc(C#N)cc4)cn23)cc1` [Compound 9, methyl N-[4-[6-[(4-cyanophenyl)-methyl-carbamoyl]imidazo[1,2-a]pyrazin-3-yl]phenyl]carbamate] displayed an inhibition of growth at 20 ppm in experiment [1] of no less than 80%.
Turning to `COC(=O)Nc1ccc(-c2cnc3cnc(C(=O)N(C)c4ccc(Cl)cc4)cn23)cc1` [Compound 28, methyl N-[4-[6-[(4-chlorophenyl)-methyl-carbamoyl]imidazo[1,2-a]pyrazin-3-yl]phenyl]carbamate], the inhibition of growth at 20 ppm in experiment [4] and in experiment [1] was no less than 80% in each case. Moreover, the pest or weed control at 200 ppm in experiment [3] is no less than 80%.
As to `COCN(C(=O)c1cn2c(-c3ccc(NC(=O)OC)nc3)cnc2cn1)c1ccc(F)c(OC)c1` [Compound 1, methyl N-[5-[6-[(4-fluoro-3-methoxy-phenyl)-(methoxymethyl)carbamoyl]imidazo[1,2-a]pyrazin-3-yl]-2-pyridyl]carbamate], the pest or weed control at 200 ppm in experiment [3] and in experiment [2] was no less than 80% throughout. The inhibition of growth at 20 ppm in experiment [1] is no less than 80%.
As to `COc1cc(N(C)C(=O)c2cn3c(-c4ccc(NC(=O)C5CC5)nc4)cnc3cn2)ccc1F` [Compound 50, 3-[6-(cyclopropanecarbonylamino)-3-pyridyl]-N-(4-fluoro-3-methoxy-phenyl)-N-methyl-imidazo[1,2-a]pyrazine-6-carboxamide], in experiment [2], the pest or weed control at 200 ppm is no less than 80%.
Consider `CC(=O)Nc1ccc(-c2cnc3cnc(C(=O)N(C)c4ccc(Br)cc4)cn23)cc1` [Compound 34, 3-(4-acetamidophenyl)-N-(4-bromophenyl)-N-methyl-imidazo[1,2-a]pyrazine-6-carboxamide], for which the inhibition of growth at 20 ppm in experiment [4] and in experiment [1] was no less than 80% throughout.
`COCN(C(=O)c1cn2c(-c3ccc(NC(=O)OC)nc3)cnc2cn1)c1ccc(C#N)c(OC)c1` [Compound 55, methyl N-[5-[6-[(4-cyano-3-methoxy-phenyl)-(methoxymethyl)carbamoyl]imidazo[1,2-a]pyrazin-3-yl]-2-pyridyl]carbamate]: the pest or weed control at 200 ppm in experiment [3] was no less than 80%. The molecule further yielded an inhibition of growth at 20 ppm in experiment [1] of no less than 80%.
As to `CON(C)C(=O)Nc1ccc(-c2cnc3cnc(C(=O)N(C)c4ccc(Cl)cc4)cn23)cc1` [Compound 5, N-(4-chlorophenyl)-3-[4-[[methoxy(methyl)carbamoyl]amino]phenyl]-N-methyl-imidazo[1,2-a]pyrazine-6-carboxamide], the inhibition of growth at 20 ppm in experiment [4] is no less than 80%.
Take `COC(=O)Nc1ccc(-c2cnc3cnc(C(=O)N4CCCc5cc(F)ccc54)cn23)cn1` [Compound 42, methyl N-[5-[6-(6-fluoro-3,4-dihydro-2H-quinoline-1-carbonyl)imidazo[1,2-a]pyrazin-3-yl]-2-pyridyl]carbamate]: the pest or weed control at 200 ppm in experiment [2] was no less than 80%.
Take `COC(=O)Nc1ccc(-c2cnc3cnc(C(=O)N4CCN(C)c5cc(F)ccc54)cn23)cn1` [Compound 53, methyl N-[5-[6-(6-fluoro-4-methyl-2,3-dihydroquinoxaline-1-carbonyl)imidazo[1,2-a]pyrazin-3-yl]-2-pyridyl]carbamate]: the inhibition of growth at 20 ppm in experiment [1] was no less than 80%.
Take `CC(=O)Nc1ccc(-c2cnc3cnc(C(=O)N(C)c4ccc(Cl)cc4)cn23)cc1` [Compound 37, 3-(4-acetamidophenyl)-N-(4-chlorophenyl)-N-methyl-imidazo[1,2-a]pyrazine-6-carboxamide]: the pest or weed control at 200 ppm in experiment [3] and in experiment [2] was no less than 80% throughout.
`COc1cc(N(C)C(=O)c2cn3c(-c4ccc(NC(=O)C5CC5)cc4)cnc3cn2)ccc1F` [Compound 46, 3-[4-(cyclopropanecarbonylamino)phenyl]-N-(4-fluoro-3-methoxy-phenyl)-N-methyl-imidazo[1,2-a]pyrazine-6-carboxamide]: the pest or weed control at 200 ppm in experiment [2] is no less than 80%.
For the molecule `CCOC(=O)Nc1ccc(-c2cnc3cnc(C(=O)N(C)c4ccc(Cl)cc4)cn23)cc1` [Compound 8, ethyl N-[4-[6-[(4-chlorophenyl)-methyl-carbamoyl]imidazo[1,2-a]pyrazin-3-yl]phenyl]carbamate], in experiment [4], the inhibition of growth at 20 ppm was no less than 80%. Moreover, in experiment [3], the pest or weed control at 200 ppm was no less than 80%.
Molecule `CC(=O)Nc1ccc(-c2cnc3cnc(C(=O)N(C)c4ccc(F)cc4)cn23)cc1` [Compound 38, 3-(4-acetamidophenyl)-N-(4-fluorophenyl)-N-methyl-imidazo[1,2-a]pyrazine-6-carboxamide] displayed an inhibition of growth at 20 ppm in experiment [1] of no less than 80%.
For `COC(=O)Nc1ccc(-c2cnc3cnc(C(=O)N(C)c4ccc(F)c(OC)c4)cn23)cc1` [Compound 58, methyl N-[4-[6-[(4-fluoro-3-methoxy-phenyl)-methyl-carbamoyl]imidazo[1,2-a]pyrazin-3-yl]phenyl]carbamate], the pest or weed control at 200 ppm in experiment [3] and in experiment [2] was no less than 80% throughout. The same molecule yielded an inhibition of growth at 20 ppm in experiment [1] of no less than 80%.
With `COC(=O)Nc1ccc(-c2cnc3cnc(C(=O)N(CC#N)c4ccc(F)c(OC)c4)cn23)cn1` [Compound 2, methyl N-[5-[6-[cyanomethyl-(4-fluoro-3-methoxy-phenyl)carbamoyl]imidazo[1,2-a]pyrazin-3-yl]-2-pyridyl]carbamate], in experiment [1], the inhibition of growth at 20 ppm is no less than 80%. In addition, in experiment [2], the pest or weed control at 200 ppm is no less than 80%.
With `COCC(=O)Nc1ccc(-c2cnc3cnc(C(=O)N(C)c4ccc(Cl)cc4)cn23)cc1` [Compound 27, N-(4-chlorophenyl)-3-[4-[(2-methoxyacetyl)amino]phenyl]-N-methyl-imidazo[1,2-a]pyrazine-6-carboxamide], the inhibition of growth at 20 ppm in experiment [1] was no less than 80%.

The inhibition of growth is the share of the control response that was lost under treatment. The low end stands for little suppression, the high end for strong suppression.

These data come from patent US20260283153A1 (priority 2023, published 2026).
